Test results published in US20210323981A1, “FREE AMINO COMPOUNDS FOR THE TREATMENT AND PROPHYLAXIS OF BACTERIAL INFECTION” (Hoffmann-La Roche Inc., priority 2018, published 2021).

Legend:
Format in all cases: cell-based
[1] = tested on: S. aureus (ATCC29213); assay: 50% growth inhibitory concentration (IC50) determination assay, S. aureus; conditions: Staphylococcus aureus, growth inhibition, Iso-Sensitest broth, OD 600 nm over 16 h, <0.098 μM = detection limit
Method: (§1) The in vitro antimicrobial activity of the compounds against S. aureus (ATCC29213), K. pneumoniae (ATCC10031), and A. baumannii (ATCC17978), was determined according to the following procedure: The assay used a 10-points Iso-Sensitest broth medium to measure quantitatively the in vitro activity of the compounds against S. aureus ATCC29213, K. pneumoniae ATCC 10031, and A. baumannii ATCC17978. Stock compounds in DMSO were serially two-fold diluted (range from 50 to 0.097 μM final concentration) in 384 wells microtiter plates and inoculated with 49 μL the bacterial suspension in Iso-Sensitest broth medium to have a final cell concentration of ˜5×10^5 CFU/mL in a final volume/well of 50 μL/well. Microtiter plates were incubated at 35±2° C. Bacterial cell growth was determined with the measurement of optical density at k=600 nm each 20 minutes over a time course of 16 h. Growth inhibition was calculated during the logarithmic growth of the bacterial cells with determination of the concentration inhibiting 50% (IC50) of the growth.

[2] = tested on: A. baumannii (ATCC17978); assay: 50% growth inhibitory concentration (IC50) determination assay, A. baumannii; conditions: Acinetobacter baumannii, growth inhibition, Iso-Sensitest broth, OD 600 nm over 16 h, <0.098 = detection limit
Method: as §1

[3] = tested on: K. pneumoniae (ATCC10031); assay: 50% growth inhibitory concentration (IC50) determination assay, K. pneumoniae; conditions: Klebsiella pneumoniae, growth inhibition, Iso-Sensitest broth, OD 600 nm over 16 h, <0.098 μM = detection limit
Method: as §1

| SMILES | IC50 [1] | IC50 [2] | IC50 [3] |
| --- | --- | --- | --- |
| CNc1cc(F)c(F)c2c1[nH]c1ncc(-c3cnc4c(c3)c(=O)c(C(=O)O)cn4C)c(N3C[C@@H]4[C@@H](N)[C@@H]4C3)c12 [Example 1.08, 6-[5,6-Difluoro-8-(methylamino)-4-[rel-(1S,5R)-6-amino-3-azabicyclo[3.1.0]hexan-3-yl]-9H-pyrido[2,3-b]indol-3-yl]-1-methyl-4-oxo-1,8-naphthyridine-3-carboxylic acid] | 0.314 µM | 0.654 µM | < 0.098 µM |
| CCn1cc(C(=O)O)c(=O)c2cc(-c3cnc4[nH]c5c(NC)cc(F)c(F)c5c4c3N3CCC(CN)C3)cnc21 (centres unmarked) [Example 1.04, 6-(4-(3-(Aminomethyl)pyrrolidin-1-yl)-5,6-difluoro-8-(methylamino)-9H-pyrido[2,3-b]indol-3-yl)-1-ethyl-4-oxo-1,4-dihydro-1,8-naphthyridine-3-carboxylic acid] | 0.572 µM | 1.33 µM | 0.11 µM |
| CNc1cc(F)c(F)c2c1[nH]c1ncc(-c3cnc4c(c3)c(=O)c(C(=O)O)cn4C)c(N3CCC4(C[C@H]4N)C3)c12 (mixture of isomers) [Example 2.02, Cis-6-[4-(2-amino-5-azaspiro[2.4]heptan-5-yl)-5,6-difluoro-8-(methylamino)-9H-pyrido[2,3-b]indol-3-yl]-1-methyl-4-oxo-1,8-naphthyridine-3-carboxylic acid] | < 0.098 µM | 0.261 µM | < 0.098 µM |
| CNc1cc(F)c(F)c2c1[nH]c1ncc(-c3cnc4c(c3)c(=O)c(C(=O)O)cn4C)c(N3CC[C@]4(C[C@@H]4N)C3)c12 [Example 3.04, 6-[4-[(2S,3S)-2-Amino-5-azaspiro[2.4]heptan-5-yl]-5,6-difluoro-8-(methylamino)-9H-pyrido[2,3-b]indol-3-yl]-1-methyl-4-oxo-1,8-naphthyridine-3-carboxylic acid] | < 0.098 µM | 0.175 µM | < 0.098 µM |
| CNc1cc(F)c(F)c2c1[nH]c1ncc(-c3cnc4c(c3)c(=O)c(C(=O)O)cn4C)c(N3C[C@H]4CCC[C@@]4(N)C3)c12 (stereo in doubt) [Example 1.12, trans-6-(5,6-Difluoro-8-(methylamino)-4-[3a-amino-1,3,4,5,6,6a-hexahydrocyclopenta[c]pyrrol-2-yl]-9H-pyrido[2,3-b]indol-3-yl)-1-methyl-4-oxo-1,8-naphthyridine-3-carboxylic acid] | 0.448 µM | 0.889 µM | < 0.098 µM |
| CNc1cc(F)c(F)c2c1[nH]c1ncc(-c3cnc4c(c3)c(=O)c(C(=O)O)cn4C)c(N3CC4(CCC4N)C3)c12 (centres unmarked) [Example 1.02, 6-[4-(7-Amino-2-azaspiro[3.3]heptan-2-yl)-5,6-difluoro-8-(methylamino)-9H-pyrido[2,3-b]indol-3-yl]-1-methyl-4-oxo-1,8-naphthyridine-3-carboxylic acid] | 3.89 µM | 2.86 µM | < 0.098 µM |
| CCn1cc(C(=O)O)c(=O)c2cc(-c3cnc4[nH]c5c(NC)cc(F)c(F)c5c4c3N3CCC(N)C3)cnc21 (centres unmarked) [Example 1.03, 6-[4-(3-Aminopyrrolidin-1-yl)-5,6-difluoro-8-(methylamino)-9H-pyrido[2,3-b]indol-3-yl]-1-ethyl-4-oxo-1,8-naphthyridine-3-carboxylic acid] | 0.944 µM | 1.49 µM | < 0.098 µM |
| CNc1cc(F)c(F)c2c1[nH]c1ncc(-c3cnc4c(c3)c(=O)c(C(=O)O)cn4C)c(N3CCC(N)(C(F)(F)F)C3)c12 (centres unmarked) [Example 1.05, 6-(4-(3-Amino-3-(trifluoromethyl)pyrrolidin-1-yl)-5,6-difluoro-8-(methylamino)-9H-pyrido[2,3-b]indol-3-yl)-1-methyl-4-oxo-1,4-dihydro-1,8-naphthyridine-3-carboxylic acid] | < 0.098 µM |  |  |
| CNc1cc(F)c(F)c2c1[nH]c1ncc(-c3cnc4c(c3)c(=O)c(C(=O)O)cn4C)c(N3CCC(F)(CN)C3)c12 (centres unmarked) [Example 1.16, 6-[4-[3-(Aminomethyl)-3-fluoro-pyrrolidin-1-yl]-5,6-difluoro-8-(methylamino)-9H-pyrido[2,3-b]indol-3-yl]-1-methyl-4-oxo-1,8-naphthyridine-3-carboxylic acid] | < 0.098 µM |  | < 0.098 µM |

More lines, now with the values ahead:

| IC50 [1] | IC50 [2] | IC50 [3] | SMILES |
| --- | --- | --- | --- |
| < 0.098 µM | 0.497 µM | < 0.098 µM | CNc1cc(F)c(C#N)c2c1[nH]c1ncc(-c3cnc4c(c3)c(=O)c(C(=O)O)cn4C)c(N3CC[C@]4(C[C@@H]4N)C3)c12 [Example 5.03, 6-[4-[(2S,3S)-2-amino-5-azaspiro[2.4]heptan-5-yl]-5-cyano-6-fluoro-8-(methylamino)-9H-pyrido[2,3-b]indol-3-yl]-1-methyl-4-oxo-1,8-naphthyridine-3-carboxylic acid] |
| < 0.098 µM | 0.0553 µM | < 0.098 µM | CNc1cc(F)c(Cl)c2c1[nH]c1ncc(-c3cnc4c(c3)c(=O)c(C(=O)O)cn4C)c(N3CC[C@@]4(C[C@@H]4N)C3)c12 [Example 4.03, 6-[4-[(2S,3R)-2-amino-5-azaspiro[2.4]heptan-5-yl]-5-chloro-6-fluoro-8-(methylamino)-9H-pyrido[2,3-b]indol-3-yl]-1-methyl-4-oxo-1,8-naphthyridine-3-carboxylic acid] |
| < 0.098 µM | 0.477 µM | < 0.098 µM | CNc1cc(F)c(C#N)c2c1[nH]c1ncc(-c3cnc4c(c3)c(=O)c(C(=O)O)cn4C)c(N3CC[C@@]4(C[C@@H]4N)C3)c12 [Example 5.01, 6-[4-[(2S,3R)-2-Amino-5-azaspiro[2.4]heptan-5-yl]-5-cyano-6-fluoro-8-(methylamino)-9H-pyrido[2,3-b]indol-3-yl]-1-methyl-4-oxo-1,8-naphthyridine-3-carboxylic acid] |
| < 0.098 µM | 0.0765 µM | < 0.098 µM | CNc1cc(F)c(Cl)c2c1[nH]c1ncc(-c3cnc4c(c3)c(=O)c(C(=O)O)cn4C)c(N3CC[C@@]4(C[C@H]4N)C3)c12 [Example 4.01, 6-[4-[(2R,3R)-2-Amino-5-azaspiro[2.4]heptan-5-yl]-5-chloro-6-fluoro-8-(methylamino)-9H-pyrido[2,3-b]indol-3-yl]-1-methyl-4-oxo-1,8-naphthyridine-3-carboxylic acid] |
| < 0.098 µM |  |  | CNc1cc(F)c(F)c2c1[nH]c1ncc(-c3cnc4c(c3)c(=O)c(C(=O)O)cn4C)c(N3CCC[C@]4(C[C@@H]4N)C3)c12 [Example 6.02, 6-[4-[(2S,3S)-2-amino-5-azaspiro[2.5]octan-5-yl]-5,6-difluoro-8-(methylamino)-9H-pyrido[2,3-b]indol-3-yl]-1-methyl-4-oxo-1,8-naphthyridine-3-carboxylic acid] |
| < 0.098 µM |  |  | CNc1cc(F)c(F)c2c1[nH]c1ncc(-c3cnc4c(c3)c(=O)c(C(=O)O)cn4C)c(N3CCC[C@@]4(C[C@H]4N)C3)c12 [Example 6.01, 6-[4-[(2R,3R)-2-Amino-5-azaspiro[2.5]octan-5-yl]-5,6-difluoro-8-(methylamino)-9H-pyrido[2,3-b]indol-3-yl]-1-methyl-4-oxo-1,8-naphthyridine-3-carboxylic acid] |
| < 0.098 µM | 0.0973 µM | < 0.098 µM | CNc1cc(F)c(Cl)c2c1[nH]c1ncc(-c3cnc4c(c3)c(=O)c(C(=O)O)cn4C)c(N3CC[C@]4(C[C@@H]4N)C3)c12 [Example 4.02, 6-[4-[(2S,3S)-2-amino-5-azaspiro[2.4]heptan-5-yl]-5-chloro-6-fluoro-8-(methylamino)-9H-pyrido[2,3-b]indol-3-yl]-1-methyl-4-oxo-1,8-naphthyridine-3-carboxylic acid] |
